Assays:
[1] = test system: B12-independent diol dehydratase; conditions: Hartmanis et al. (1986); cited from earlier work
[2] = test system: Erwinia amino alcohol O-phosphate lyase; test: Aminopropanol O-phosphate lyase assay (MBTH, OD670); assay type: biochemical, Erwinia carotovora subsp. atroseptica; conditions: 10 mM substrate, 37° C.
Protocol: The pBAD.KA-AT plasmid was transformed into the E. coli TOP10 strain. A 50 mL culture of TOP10/pBAD.KA-AT strain was grown to mid log phase (OD600=0.6) in LB, 100 μg/mL ampicillin media at 37° C. with shaking at 250 rpm. The culture was induced by addition of L-arabinose to a final concentration of 0.1% (w/v), and it was further incubated at 37° C. for 5 h before harvesting by centrifugation. The cell pellet was resuspended in ice cold 50 mM Tris-HCl, pH 8.0, and disrupted by sonication on ice with a Fischer Sonic Model 300 Dismembrator (Fischer, Pittsburgh, Pa.) at 50% power, repeating four cycles of 30 seconds sonication with 60 seconds rest in-between each cycle. Each sonicated sample was centrifuged (15,000×g, 4 min, 4° C.). Clarified cell free extracts were analyzed for protein expression level and amino alcohol O-phosphate lyase activity.
The aminopropanol O-phosphate lyase assay was performed as described by Jones et al. (1973, Biochem. J. 134:167-182) and G. Gori et al. (1995, Chromatographia 40:336) The formation of propionaldehyde from aminopropanol O-phosphate was assayed calorimetrically with MBTH, which allows the detection of aldehyde formation. The reaction was performed as follows. In a 1 mL reaction, 100 μg cell free extract of E. coli TOP10/pBAD.KA-AT was added to 10 mM DL-1-amino-2-propanol O-phosphate in 100 mM Tris-HCl, pH 7.8, with 0.1 mM PLP. The reaction was incubated at 37° C. for 10 min and 30 min, with an aliquot of 100 μL reaction mixture removed at each time point and mixed with 100 μL of 6 mg/mL MBTH in 375 mM glycine-HCl, pH 2.7. This mixture was incubated at 100° C. for 3 min, cooled on ice for 15-30 s, and 1 mL of 3.3 mg/mL FeCl3.6H2O (in 10 mM HCl) was added, followed by incubation for 30 min at room temperature. The absorbance of the reaction mixture which contains the aldehyde-MBTH adduct, was measured at 670 nm. In the presence of the aminopropanol phosphate substrate, PLP and cell free extract, formation of aldehyde was detected, as indicated by an Abs670 that was higher than the control background of up to 0.3. In the absence of either the substrate or the cell free extract, no aldehyde formation was detected. In the absence of added PLP, somewhat less amount aldehyde was detected, presumably due to the presence of PLP in the cell free extract.

[3] = test system: glycerol dehydratase; test: Butanediol dehydratase activity of glycerol dehydratase; assay type: biochemical, Klebsiella pneumoniae; conditions: 10 mM meso-2,3-butanediol, 12 μM coenzyme B12, pH 8.2, 37° C., crude cell free extract of KLP23/pSYCO12
Text: Glycerol dehydratase (E.C. 4.2.1.30) and diol dehydratase (E.C. 4.2.1.28), while structurally related, are often distinguished in the art based on various differences that include substrate specificity. […] The recombinant E. coli strain KLP23/pSYCO12, comprising Klebsiella pneumoniae genes encoding the multiple subunits of glycerol dehydratase (alpha: SEQ ID NO:145 (coding region) and 146 (protein); beta: SEQ ID NO: 147 (coding region) and 148 (protein); and gamma: SEQ ID NO: 149 (coding region) and 150 (protein)) and Klebsiella pneumoniae genes encoding the multiple subunits of glycerol dehydratase reactivase (large subunit, SEQ ID NO: 151 (coding region) and 152 (protein); and small subunit, SEQ ID NO: 153 (coding region) and 154 (protein)), is described in Emptage et al. U.S. Pat. No. 6,514,733 and in WO 2003089621, which are herein incorporated by reference. A crude, cell free extract of KLP23/pSYCO12 was prepared by methods known to one skilled in the art. […] The formation of 2-butanone was monitored by HPLC (Shodex SH-1011 column and SH-G guard column with refractive index detection; 0.01 M H2SO4 as the mobile phase at a flow rate of 0.5 mL/min and a column temperature of 50° C.; 2-butanone retention time=40.2 min). The rate of 2-butanone formation by the glycerol dehydratase preparation was determined to be 0.4 nmol/min/mg of crude protein.

[4] = Sample 2: induced cell free extract, PLP (+)
[5] = Sample 4: induced cell free extract, PLP (−)

CC(O)C(C)O (stereo not drawn) [2,3-butanediol]
Activity relative to the activity towards ethanediol [1]: less than 1%

CC(CN)OP(=O)(O)O (racemic) [Aminopropanol O-phosphate, DL-1-amino-2-propanol O-phosphate]
OD670, 10 min [2, 4]: 1.229
OD670, 30 min [2, 4]: 2.264
OD670, 10 min [2, 5]: 0.855
OD670, 30 min [2, 5]: 1.454

CC(O)C(C)O (stereo not drawn) [meso-2,3-butanediol]
Rate of 2-butanone formation [3]: 0.4 nmol/min/mg of crude protein
